Test results reported in US8227459B2, “Diamino-phenothiazinyl derivatives as antiviral treatments” (priority 2007, dated 2012).

Experiments:
VEEV Trinidad virus = format: cell-based, Venezuelan Equine Encephalitis virus
DENV = format: cell-based, Dengue virus
WNV = format: cell-based, West Nile virus
RVFV = format: cell-based, Rift Valley Fever virus
LASV = format: cell-based, Lhasa virus
EBOV [1] = test system: EBOV; set-up: species or system mice; details: mouse, in vivo, ip
EEEV = format: cell-based, Easter Equine Encephalitis virus
HCV = format: cell-based, hepatitis C virus
CHK = format: cell-based, chikungunya virus
WEEV = format: cell-based, Wester Equine Encephalitis virus
EBOV [2] = format: cell-based, Ebola virus
PTV = format: cell-based, Punta Toro Virus
Marburg virus = test system: Marburg virus; set-up: species or system mice; details: mouse, in vivo, ip

Molecule	EC99 VEEV (VEEV Trinidad virus) [µM]	EC99 DENV (DENV) [µM]	EC99 WNV (WNV) [µM]	EC99 RVFV (RVFV) [µM]	EC99 LASV (LASV) [µM]	further results
CN(C)c1ccc2nc3ccc(N)cc3[s+]c2c1.[Cl-] [Azure A]	0.1 to 1	1				
CNc1ccc2nc3ccc(N)cc3[s+]c2c1.[Cl-] [Azure C]	0.1	<1				
CN(C)c1cc(F)c2nc3c(F)cc(=[N+](C)C)cc-3sc2c1 [Compound 3]	<1		1	>5	>5	
CN(C)c1cc(Cl)c2nc3c(Cl)cc(=[N+](C)C)cc-3sc2c1 [Compound 4]	<1		<1	0.05	<5	
Cc1cc(=[N+](C)C)cc2sc3cc(N(C)C)cc(C)c3nc1-2.[Cl-] [Dimethyl MB, dimethylmethylene blue]	0.02 to 0.1		0.025 to 0.1	<10	<1	prophylaxis of study group against EBOV (EBOV [1]): complete prophylaxis; survival, EBOV (EBOV [1]): 100%; EC99 EEEV (EEEV): <0.1 µM; EC99 HCV (HCV): 0.2 to 0.5 µM; EC99 CHK (CHK): 0.1 to 1 µM; EC99 WEEV (WEEV): 0.1 µM; EC99 EBOV (EBOV [2]): 0.025 to 0.1 µM; EC99 PTV (PTV): 5 µM; day by which surviving mice had recovered, Marburg (Marburg virus): ≤ 9 days; prophylaxis of study group against Marburg (Marburg virus): 60%
CN(C)c1ccc2nc3ccc(=[N+](C)C)cc-3sc2c1 [Methylene Blue (MB), Methylene Blue]	<1	10	<1	>5		EC99 EEEV (EEEV): 1 µM; EC99 HCV (HCV): 0.02 to 0.08 µM; EC99 CHK (CHK): 1 µM; EC99 WEEV (WEEV): 1 µM; EC99 EBOV (EBOV [2]): >3.2 µM
Cc1cc2nc3ccc(N(C)C)cc3[s+]c2cc1N.[Cl-] [Toluidine Blue]	<10	1				
Azure B	0.1 to 1	1				
